# Key:
# [1] = test system: articular chondrocytes; experiment: Increase of matrix production of articular chondrocytes (Alcian blue staining of proteoglycan); format: cell-based, rabbit; conditions: for Proteoglycan Production (%): cultivation until day 5, vehicle = 100
# Procedure: Four NZW line rabbits (Kitayama Labes., Co Ltd.; male; 4-week-old) were sacrificed with bleeding under ether anesthesia and femur knee joints were collected aseptically. The collected knee joints were stored in phosphate buffer (pH 7.2) containing 0.2% glucose and only the cortical layer of knee joint was scrapped with a surgical knife into a 50 ml tube containing phosphate buffer (pH 7.2) containing 0.2% glucose. The collected knee joint cortical layer was cut into as small sections as possible on a dish with a razor and shaken at 37° C. for 15 minutes in phosphate buffer containing 0.2% glucose, supplied with 10× trypsin-ethylenediamine tetraacetic acid (EDTA)·4 Na salt (GIBCO; Cat. No. 15400-054) (50 ml, with 100 mg of trypsin and 40 mg of EDTA·4Na; pH 7.2). After shaking, the sample was centrifuged (1,400 rpm) to collect precipitates, and the precipitates were washed twice with 40 ml of phosphate buffer containing 0.2% glucose. The washed precipitates were combined with 40 ml of serum-free α-minimum essential medium (MEM: GIBCO; Cat: No. 12571-063) containing 60 mg of collagenase for cell diffusion (Wako Pure Chemical Industries, Ltd., 034-10533) and transferred to a 100 ml beaker containing a sterilized stirrer bar. Under stirring with the stirrer bar, the collagenase digestion was carried on for about 1 hour in a CO2 incubator at 37° C. Cartilage fragments were removed from the collagenase-treated cells using a […] Cell Strainer ([FALCON; Cat. No. 2340]). To the residual treated cells was added 10 ml of α-MEM medium containing 10% fetal calf serum (FCS), and centrifuged (1,400 rpm). The precipitates were washed with 10% FCS-αMEM medium twice, suspended in appropriate volume of the same medium and the resultant suspension was seeded into collagen type II (Wako Pure Chemical Industries, Ltd., 033-13901)-coated plates (48 well) at 20,000 cells/well. On the next day, the medium was replaced with 10% FCS-αMEM medium.
# When cells reached to confluent after the medium exchange procedure above, the medium for test group was replaced with test compound-containing medium (including 0.1% dimethylsulfoxide as a vehicle). As a medium to which a test compound is added, 10% FCS-αMEM medium containing 0.2 mM ascorbic acid was used. The day on which test compound-containing medium was added for the first time was defined as “day 1”. The medium exchange with the same medium was again conducted at day 3 and the cultivation continued until day 5. As to the control group, the medium was exchanged at the same time using the same medium as the test group except that it is free of test compound (containing vehicle only), and the cultivation was carried out in the same manner. After completion of cultivation, the supernatant was removed from the culture medium. Cells were fixed by addition of 0.25 ml of neutral buffer containing 4% paraformaldehyde and incubation for 2 hours. Cells were washed three times with 1 ml of phosphate buffer (pH 7.2) and then stained for 4 hours with 0.1% Alcian blue 8GX (Sigma; A3157) dissolved in 0.1 M hydrochloric acid, which Alcian blue selectively stains cartilage matrix proteoglycan. After staining, the cells were washed 3 times with 1 ml of phosphate buffer (pH 7.2). Alcian blue which had stained cartilage matrix was dissolved with 0.25 ml of aqueous 6 M guanidine hydrochloride solution and a portion of the solution was used to determine the absorbance at 620 nm. The amounts of Alcian blue used for staining was calculated from the absorbance, which in turn was used for the estimation of the amount of matrix (proteoglycan).
# [2] = test system: cAMP-hydrolyzing PDE expressed in articular cartilage (PDE4-related peaks); experiment: cAMP hydrolyzing activity (PDE activity) of Mono Q fractions of articular cartilage extract, radio-labeled nucleic acid assay; format: biochemical, rabbit; conditions: final concentration 1×10^−5 M; FIG. 1
# Procedure: Four NZW line rabbits (Kitayama Labes., Co Ltd.; male; 4-week-old) were sacrificed with bleeding under ether anesthesia and femur knee joints were collected aseptically. The collected knee joints were stored in phosphate buffer (pH 7.2) containing 0.2% glucose and only the cortical layer of knee joint portion was scrapped with a knife into a 50 ml tube containing phosphate buffer (pH 7.2) containing 0.2% glucose. The collected knee joint cortical layer was cut into as small sections as possible on a dish with a razor, washed with ice-cold phosphate buffer and homogenized with a homogenizer (Polytron: Kinematica A.G.) in homogenization buffer (20 mM Tris-HCl, pH 7.4, 2 mM magnesium acetate, 0.3 mM calcium chloride, 1 mM dithiothreitol, 40 μM leupeptin, 1.3 mM benzamidine, 0.2 mM phenylmethylsulfonyl fluoride and 1 mM sodium azide). The resultant homogenate was centrifuged (100,000×g, 60 minutes) to separate supernatant.
# The supernatant was subjected to Mono Q Sepharose High Performance column (Amersham Pharmacia Biotech) previously equilibrated with an elution buffer (20 mM Tris-HCl, pH 7.4, 1 mM calcium chloride, 1 mM dithiothreitol, 2 μM leupeptin, 5 mM benzamidine). […]
# The determination of PDE activity was performed by a radio-labeled nucleic acid assay. […] To each eluate was added a liquid scintillation cocktail and the radio activity was measured.
smiles,measurement,setting,value
COc1ccc(C2CNC(=O)C2)cc1OC1CCCC1 (stereo not shown) [Compound (44)],Proteoglycan Production (%),[1]; 1 × 10^−4 M,116%
same,Proteoglycan Production (%),[1]; 1 × 10^−5 M,125%
same,matrix production promoting activity,[1]; summary of Table 1,exert matrix production promoting activity
same,inhibition of cAMP hydrolyzing activity of the four peaks,[2],strongly inhibited
